Our source for the IC50 values is patent publication US9233983B2, “Substituted hetero-bicyclic compounds, compositions and medicinal applications thereof” (ADVINUS THERAPEUTICS LIMITED, priority 2012, dated 2016).

The test system of one experiment is mouse splenocytes. Description: Inhibition of B Cell Activation as Measured by CD69 Expression in Mouse Splenocytes. The class given is cell-based. The conditions noted are these: Splenocyte; C57/BL6 splenocytes, 3 ug/mL goat anti-mouse IgM, 18-20 hrs, CD69+ve cells within CD19; read-out: Mouse spleenocyte IC50. The procedure: Inhibition of B Cell Activation as Measured by CD69 Expression in Mouse Splenocytes:
To test the effect of BTK inhibitors in suppressing B-cell receptor (BCR) mediated activation of B cells, we developed a flow cytometry based assay to analyze CD69 expression in B cell population among total splenocyte from the mouse. […] Finally, cell were cultured in RPMI medium with 10% FBS.
Test compounds were diluted half log starting from 2 mM in 100% DMSO (200×). 1×10^5 splenocytes were incubated with 1 uL of diluted test compounds in 200 uL culture medium in a U-bottom 96 well plate (Greiner) at 37° C. with 5% CO2 for 30 mins. Control wells received 1 uL of 100% DMSO without any compound. The cells were stimulated with 3 ug/mL goat anti-mouse IgM (Sigma, cat#M8644) and incubated for 18-20 hrs. […] Then the cells were washed 3 times with PBS with 1% FBS and analyzed by Guava Easycyte Mini flow cytometer system (Millipore). Flow cytometry data were analyzed using Weasel software (WEHI, Melbourne). First B cells were gated using CD19 markers. Then expression of CD69 was analyzed as percentage of CD69+ve cells within CD19. Percent activity for each data point was calculated using following formula: […]
Percentage activity was fit using sigmoid dose response with variable slope logistic equation in Graph-pad Prism 5 software to determine inhibition constant 50 (IC50).

Experiment [1] deals with human Bruton's Tyrosine Kinase (Btk) (Homo sapiens (Human), UniProt Q06187). Kind of experiment: Recombinant Human Bruton's Tyrosine Kinase (Btk) Inhibition Assay (HTRF KinEASE-TK). The conditions noted are these: 20 ng/ml rhBtk, 77 μM ATP (KM), 1 μM TK-Biotin substrate, 90 min; read-out: hBTK IC50. Format: biochemical.

Structures are written as SMILES.

Chain of human Bruton's Tyrosine Kinase (Btk) (Q06187 whole entry): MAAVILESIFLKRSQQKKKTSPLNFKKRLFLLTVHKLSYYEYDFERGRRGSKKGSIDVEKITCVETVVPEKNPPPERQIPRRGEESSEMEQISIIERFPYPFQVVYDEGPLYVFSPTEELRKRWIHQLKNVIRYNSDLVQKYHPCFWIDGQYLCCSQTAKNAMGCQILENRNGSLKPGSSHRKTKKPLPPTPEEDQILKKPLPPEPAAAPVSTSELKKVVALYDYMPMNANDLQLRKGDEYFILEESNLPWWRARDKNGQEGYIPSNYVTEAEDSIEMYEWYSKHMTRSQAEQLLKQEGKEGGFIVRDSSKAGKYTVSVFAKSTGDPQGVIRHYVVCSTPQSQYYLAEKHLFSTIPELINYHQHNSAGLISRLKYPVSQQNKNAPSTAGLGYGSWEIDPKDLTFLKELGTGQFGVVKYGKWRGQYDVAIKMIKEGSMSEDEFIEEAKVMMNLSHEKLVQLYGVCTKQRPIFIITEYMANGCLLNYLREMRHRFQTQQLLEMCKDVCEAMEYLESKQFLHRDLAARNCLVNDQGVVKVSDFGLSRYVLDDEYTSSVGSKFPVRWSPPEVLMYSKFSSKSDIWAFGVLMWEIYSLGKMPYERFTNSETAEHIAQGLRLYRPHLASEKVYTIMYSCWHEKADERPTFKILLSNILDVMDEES

`C=CC(=O)N1CCCC(n2cc(-c3cc4c(-c5cccc(N6CCOc7cc(C8CC8)ccc7C6=O)c5CO)ncnc4[nH]3)cn2)C1` (stereo not drawn) [Example S-1, 8-cyclopropyl-4-[2-(hydroxymethyl)-3-[6-[1-(1-prop-2-enoyl-3-piperidyl)pyrazol-4-yl]-7H-pyrrolo[2,3-d]pyrimidin-4-yl]phenyl]-2,3-dihydro-1,4-benzoxazepin-5-one]: the IC50 in the experiment with mouse splenocytes was 130 nM; in experiment [1], 4 nM.
For the compound `CCN1CCN(Cc2ccc(-c3cc4c(-c5cccc(N6CCOc7cc(C8CC8)ccc7C6=O)c5CO)ccnc4[nH]3)nc2)CC1` [Example I-4, 8-cyclopropyl-4-[3-[2-[5-[(4-ethylpiperazin-1-yl)methyl]-2-pyridyl]-1H-pyrrolo[2,3-b]pyridin-4-yl]-2-(hydroxymethyl)phenyl]-2,3-dihydro-1,4-benzoxazepin-5-one], the IC50 with mouse splenocytes came to 23 nM; in experiment [1] it was 2 nM.
Consider `CC1(O)CCC(n2cc(-c3cc4c(-c5cccc(N6CCOc7cc(C8CC8)ccc7C6=O)c5CO)ccnc4[nH]3)cn2)CC1` (stereo not drawn) [Example F-3, 8-cyclopropyl-4-[2-(hydroxymethyl)-3-[2-[1-(4-hydroxy-4-methyl-cyclohexyl)pyrazol-4-yl]-1H-pyrrolo[2,3-b]pyridin-4-yl]phenyl]-2,3-dihydro-1,4-benzoxazepin-5-one], for which the IC50 worked out at 92 nM in the experiment on mouse splenocytes and 3.8 nM in experiment [1].
For the compound `O=C1c2c(F)cc(C3CC3)cc2OCCN1c1cc(F)cc(-c2ccnc3[nH]c(C4=CCN(C5COC5)CC4)cc23)c1CO` [Example P-16, 8-cyclopropyl-6-fluoro-4-[5-fluoro-2-(hydroxymethyl)-3-[2-[1-(oxetan-3-yl)-3,6-dihydro-2H-pyridin-4-yl]-1H-pyrrolo[2,3-b]pyridin-4-yl]phenyl]-2,3-dihydro-1,4-benzoxazepin-5-one], the IC50 with mouse splenocytes came to 9 nM.
For `CN1CC(Oc2ccc(-c3cc4c(-c5cccc(N6CCOc7cc(C8CC8)ccc7C6=O)c5CO)ncnc4[nH]3)cc2)C1` [Example G-2, 8-cyclopropyl-4-[2-(hydroxymethyl)-3-[6-[4-(1-methylazetidin-3-yl)oxyphenyl]-7H-pyrrolo[2,3-d]pyrimidin-4-yl]phenyl]-2,3-dihydro-1,4-benzoxazepin-5-one], the values for the IC50 (in the experiment with mouse splenocytes; in experiment [1]) were 54 nM and 5 nM, respectively.
On the same counts, the results for `Cc1c(-c2ncnc3[nH]c(-c4ccc(CN5CCN(C)CC5)cc4)cc23)cccc1N1CCOc2cc(C3CC3)ccc2C1=O` [Example B-2] are 200 nM and 31 nM.
On the same counts, the results for `O=C1c2ccc(C3CC3)cc2OCCN1c1cccc(-c2ncnc3[nH]c(-c4ccc(CN5CCOCC5)cc4)cc23)c1CO` [Example B-5, 8-cyclopropyl-4-[2-(hydroxymethyl)-3-[6-[4-(morpholinomethyl)phenyl]-7H-pyrrolo[2,3-d]pyrimidin-4-yl]phenyl]-2,3-dihydro-l,4-benzoxazepin-5-one] are 60 nM and 8 nM.
With `CN1CCN(Cc2ccc(-c3cc4c(-c5cccc(N6CCOc7cc(C8CC8)cc(F)c7C6=O)c5CO)ccnc4[nH]3)nc2)CC1` [Example I-2, 8-cyclopropyl-6-fluoro-4-[2-(hydroxymethyl)-3-[2-[5-[(4-methylpiperazin-1-yl)methyl]-2-pyridyl]-1H-pyrrolo[2,3-b]pyridin-4-yl]phenyl]-2,3-dihydro-1,4-benzoxazepin-5-one], the IC50 in the experiment on mouse splenocytes was found to be 5 nM; in experiment [1], 1 nM.
As for `Cc1c(-c2nc(N)nc3[nH]c(-c4ccc(CN5CCN(C)CC5)cc4)cc23)cccc1N1CCOc2cc(C3CC3)ccc2C1=O` [Example N-1, 4-[3-[2-amino-6-[4-[(4-methylpiperazin-1-yl)methyl]phenyl]-7H-pyrrolo[2,3-d]pyrimidin-4-yl]-2-methyl-phenyl]-8-cyclopropyl-2,3-dihydro-1,4-benzoxazepin-5-one], the IC50 with mouse splenocytes was determined as 61 nM; in experiment [1] it was 33 nM.
As for `CCN1CCN(Cc2ccc(-c3cc4c(-c5cccc(N6CCOc7cc(C8CC8)ccc7C6=O)c5CO)ncnc4[nH]3)cc2)CC1` [Example B-7, 8-cyclopropyl-4-[3-[6-[4-[(4-ethylpiperazin-1-yl)methyl]phenyl]-7H-pyrrolo[2,3-d]pyrimidin-4-yl]-2-(hydroxymethyl)phenyl]-2,3-dihydro-1,4-benzoxazepin-5-one], the IC50 was determined as 52 nM with mouse splenocytes and 6 nM in experiment [1].
As for `Cc1c(-c2ncnc3[nH]c(-c4ccc(C(=O)N5CCC(O)CC5)cc4)cc23)cccc1N1CCc2cc(C3CC3)ccc2C1=O` [Example K-16, 6-cyclopropyl-2-[3-[6-[4-(4-hydroxypiperidine-1-carbonyl)phenyl]-7H-pyrrolo[2,3-d]pyrimidin-4-yl]-2-methyl-phenyl]-3,4-dihydroisoquinolin-1-one], the IC50 with mouse splenocytes was greater than 1000 nM; in experiment [1] it was 21 nM.
As to `CC(=O)N1CC(N2CC=C(c3cc4c(-c5cccc(N6CCOc7cc(C8CC8)cc(F)c7C6=O)c5CO)ccnc4[nH]3)CC2)C1` [Example R-1, 4-[3-[2-[1-(1-acetylazetidin-3-yl)-3,6-dihydro-2H-pyridin-4-yl]-1H-pyrrolo[2,3-b]pyridin-4-yl]-2-(hydroxymethyl)phenyl]-8-cyclopropyl-6-fluoro-2,3-dihydro-1,4-benzoxazepin-5-one], the IC50 in the experiment with mouse splenocytes was determined as 75 nM; in experiment [1], 2.2 nM.
On to `CCN1CCC(n2cc(-c3cc4c(-c5cccc(-n6ncc7cc(C8CC8)ccc7c6=O)c5CO)ncnc4[nH]3)cn2)CC1` [Example D-13, 6-cyclopropyl-2-[3-[6-[1-(1-ethyl-4-piperidyl)pyrazol-4-yl]-7H-pyrrolo[2,3-d]pyrimidin-4-yl]-2-(hydroxymethyl)phenyl]phthalazin-1-one], for which the IC50 worked out at 65 nM in the experiment on mouse splenocytes and 3 nM in experiment [1].
For `CC1(O)CCN(C(=O)c2ccc(-c3cc4c(-c5cccc(N6CCOc7cc(C8CC8)ccc7C6=O)c5CO)ccnc4[nH]3)cc2)CC1` [Example L-2, 8-cyclopropyl-4-[2-(hydroxymethyl)-3-[2-[4-(4-hydroxy-4-methyl-piperidine-1-carbonyl)phenyl]-1H-pyrrolo[2,3-b]pyridin-4-yl]phenyl]-2,3-dihydro-1,4-benzoxazepin-5-one] the same measures were 87 nM and 9 nM.
As to `CC(O)C(=O)N1CC=C(c2cc3c(-c4cccc(N5CCOc6cc(C7CC7)cc(F)c6C5=O)c4CO)ccnc3[nH]2)CC1` (stereo not drawn) [Example P-29, 8-cyclopropyl-6-fluoro-4-[2-(hydroxymethyl)-3-[2-[1-(2-hydroxypropanoyl)-3,6-dihydro-2H-pyridin-4-yl]-1H-pyrrolo[2,3-b]pyridin-4-yl]phenyl]-2,3-dihydro-1,4-benzoxazepin-5-one], the values for the IC50 (in the experiment with mouse splenocytes; in experiment [1]) were 8 nM and 1.3 nM, respectively.
With `CCN1CC(n2cc(-c3cc4c(-c5cccc(N6CCOc7cc(C8CC8)ccc7C6=O)c5CO)ccnc4[nH]3)cn2)C1` [Example D-10, 8-cyclopropyl-4-[3-[2-[1-(1-ethylazetidin-3-yl)pyrazol-4-yl]-1H-pyrrolo[2,3-b]pyridin-4-yl]-2-(hydroxymethyl)phenyl]-2,3-dihydro-1,4-benzoxazepin-5-one], the IC50 in the experiment with mouse splenocytes came to 76 nM.
